Assays:
[1] = system: PTH concentration in blood; format: in vivo; conditions: for death or abnormality of the rat administered with the compounds: 0.1-100 mg/kg intravenous or oral; for PTH concentration in blood after 30 minutes / dose dependence of PTH concentration increase / PTH concentration in blood 5 minutes after the intravenous administration: rat, 0.1-100 mg/kg; for PTH concentration in blood 5 minutes after the intravenous administration: Rat Intact PTH ELISA, versus normal value
Description: Compounds of Exp. 3-49, Exp. 3-57, Exp. 3-93, Exp. 3-95, Exp. 3-102, Exp. 3-106, Exp. 8-5, Exp. 10-1 and Exp. 10-25 were chosen as a test compound. Each of them was either dissolved or suspended in physiological saline or distilled water containing 1-20% DMSO, 5% CremophorEL, 10-40% PEG300, etc. and administered intravenously (tail vein or femoral vein) or orally administered to a 7 week to 10 week old male SD-IGS rat (Nippon Charles-River) with dosage of 0.1-100 mg/kg. After that, blood sample was taken from subclavian vein over the time and serum was separated. Concentration of PTH in blood was measured using Rat Intact PTH ELISA Kit (manufactured by Immutopics) to evaluate an activity of increasing PTH concentration in blood. […] Therefore, the safety of these compounds was confirmed again.

[2] = target: T1, human calcium-sensing receptor (CaSR) (Homo sapiens, UniProt P41180); test: intracellular Ca assay, CaSR antagonist activity in HEK293/hCaSR cells; format: cell-based; conditions: Fura2-AM, inhibition of response to calcium chloride ligand solution, read-out: IC50 values according to the intracellular Ca assay (CaSR antagonist activity)
T1 construct: expressed in transfected cells
T1 sequence (P41180 20-1078): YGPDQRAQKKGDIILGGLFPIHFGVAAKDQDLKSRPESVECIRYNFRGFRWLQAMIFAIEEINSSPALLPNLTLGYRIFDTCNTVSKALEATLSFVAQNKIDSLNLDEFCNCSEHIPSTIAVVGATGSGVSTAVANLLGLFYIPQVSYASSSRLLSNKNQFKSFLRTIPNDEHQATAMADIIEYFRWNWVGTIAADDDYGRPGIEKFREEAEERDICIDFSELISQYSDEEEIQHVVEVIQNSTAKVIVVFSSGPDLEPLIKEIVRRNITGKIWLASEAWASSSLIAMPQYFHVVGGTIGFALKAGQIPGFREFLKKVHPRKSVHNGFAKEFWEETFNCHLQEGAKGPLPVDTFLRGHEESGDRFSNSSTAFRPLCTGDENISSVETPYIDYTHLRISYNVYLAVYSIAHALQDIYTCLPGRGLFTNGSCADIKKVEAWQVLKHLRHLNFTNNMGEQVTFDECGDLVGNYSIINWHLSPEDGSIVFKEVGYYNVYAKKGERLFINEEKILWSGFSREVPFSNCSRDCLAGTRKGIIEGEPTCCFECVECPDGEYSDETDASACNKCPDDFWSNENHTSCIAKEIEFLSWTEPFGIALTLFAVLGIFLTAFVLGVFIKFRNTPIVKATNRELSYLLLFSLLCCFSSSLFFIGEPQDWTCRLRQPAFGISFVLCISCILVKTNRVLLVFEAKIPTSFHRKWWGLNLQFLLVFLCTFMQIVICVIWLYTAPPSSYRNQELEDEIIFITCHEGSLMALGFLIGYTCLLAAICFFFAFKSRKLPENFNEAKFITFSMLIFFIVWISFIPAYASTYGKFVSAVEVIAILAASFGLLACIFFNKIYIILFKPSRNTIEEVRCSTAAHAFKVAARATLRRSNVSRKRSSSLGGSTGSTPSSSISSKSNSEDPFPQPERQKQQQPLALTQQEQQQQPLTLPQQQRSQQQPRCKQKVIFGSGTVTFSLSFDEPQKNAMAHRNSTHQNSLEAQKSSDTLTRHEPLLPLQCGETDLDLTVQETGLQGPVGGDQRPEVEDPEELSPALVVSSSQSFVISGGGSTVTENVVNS
In short: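 HEK293/hCaSR cells were loaded with Fura2-AM and pre-incubated with compound for 160 s at 37° C in HEPES buffer (pH 7.4, 0.8 mM CaCl2), then challenged with calcium ligand solution. Read-out was the peak 340/380 nm fluorescence ratio; inhibition is relative to no-compound (0%) and no-calcium-ligand (100%) controls.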

[3] = oral everyday for eight weeks, rat with removed ovary; cited from earlier work
[4] = system: PTH concentration in blood; conditions: single oral administration, rat; cited from earlier work
[5] = 20 μg subcutaneously everyday for 19 months in average; cited from earlier work
[6] = PTH 20 μg subcutaneous everyday; ALN 10 mg oral everyday; cited from earlier work

Molecule	death or abnormality of the rat administered with the compounds [1]	PTH concentration in blood after 30 minutes [1]	dose dependence of PTH concentration increase [1]	PTH concentration in blood 5 minutes after the intravenous administration [1]	IC50 [2] [nM]	bone formation evaluated by bone morphometry [3]	bone mineral density [3]	PTH concentration in blood [4]	bone mineral density increase in lumbar spine [5] [%]	bone mineral density increase in neck of femur [5] [%]	inhibition of frequency of occurrence of new vertebral body fracture [5] [%]	inhibition of frequency of occurrence of non-vertebral body fracture [5] [%]	increase of bone mineral density of lumbar spine 18 months after the administration [6] [%]
CN(C[C@H](O)CNC(C)(C)CC1Cc2ccccc2C1)S(=O)(=O)c1cccc(-c2ccc(CCC(=O)O)cc2)c1 [Exp. 3-57, (R)-3-(3′ (N-(3-(1-(2,3-dihydro-1H-inden-2-yl)-2-methylpropan-2-ylamino)-2-hydroxypropyl)-N-methylsulfamoyl)biphenyl-4-yl)propionic acid]	no death or abnormality was found	returned to a normal value	dependent on the administration amount of the compound	increased at least twice the normal value	300 to 1000	–	–	–	–	–	–	–	–
CN(C[C@H](O)CNC(C)(C)CC1Cc2ccccc2C1)S(=O)(=O)c1ccc(-c2ccc(CCC(=O)O)cc2)c(Cl)c1 [Exp. 3-106, (R)-3-(2′-chloro-4′-(N-(3-(1-(2,3-dihydro-1H-inden-2-yl)-2-methylpropan-2-ylamino)-2-hydroxypropyl)-N-methylsulfamoyl)biphenyl-4-yl)propionic acid]	no death or abnormality was found	returned to a normal value	dependent on the administration amount of the compound	increased at least twice the normal value	≤ 300	–	–	–	–	–	–	–	–
CC(C)(Cc1ccc2ccccc2c1)NC[C@@H](O)COc1cccc(Cl)c1C#N [NPS2143]	–	–	–	–	–	increased	remained almost the same	continuously increased	–	–	–	–	–
CN(C[C@H](O)CNC(C)(C)CCCc1ccccc1)S(=O)(=O)c1cc(CCC(=O)O)cc(C(F)(F)F)c1 [Exp. 8-5, (R)-3-(3-(N-(2-hydroxy-3-(2-methyl-5-phenylpentan-2-ylamino)propyl)-N-methylsulfamoyl)-5-(trifluoromethyl)phenyl)propionic acid]	no death or abnormality was found	returned to a normal value	dependent on the administration amount of the compound	increased at least twice the normal value	≤ 300	–	–	–	–	–	–	–	–
PTH: parathyroid hormone (PTH) preparation, a peptide preparation injected subcutaneously (peptide, UniProt P01270 32-115, looked up, Parathyroid hormone, parathyroid hormone (PTH) preparation, a peptide preparation injected subcutaneously) Parathyroid hormone: SVSEIQLMHNLGKHLNSMERVEWLRKKLQDVHNFVALGAPLAPRDAGSQRPRKKEDNVLVESHEKSLGEADKADVNVLTKAKSQ	–	–	–	–	–	–	–	–	9.7	2.8	65	53	10.3

Source: US8039514B2, “Sulfonamide compounds and use thereof” (Asahi Kasei Pharma Corporation, priority 2008, dated 2011)
